Laboratory results published in patent publication US20190127381A1, “SUBSTITUTED FUSED PYRIMIDINONE COMPOUNDS” (TORRENT PHARMACEUTICALS LIMITED, priority 2016, published 2019).
Blank lines part the entries; values can stand above or below the molecule they belong to.

Columns and labels:
[1] = target: T1, purified recombinant human PI3K enzyme δ (Homo sapiens, UniProt O00329); assay: Inhibition of PI3-Kinase enzymatic activity (HTRF enzyme assay), δ; assay type: biochemical; conditions: 1 μM compound; PI3K δ 50 ng/well; PIP2 10 μM; ATP 200 μM; read-out: Percentage inhibition of PI3K activity, δ
T1 construct: purchased Invitrogen, USA
Procedure: (§1) Inhibition of PI3-Kinase enzymatic activity was determined using a homogeneous time-resolved fluorescence (HTRF) kit from Eurofins. 1 μM of Compounds of present invention were premixed with DMSO. The experiment was initiated by mixing 1.0% DMSO as vehicle/compounds with purified recombinant human PI3K enzyme {δ (50 ng/well); γ (100 ng/well)} (Invitrogen, USA) and substrate (PIP2, 10 μM) in the wells and incubation for 15 min at room temperature. There after ATP was added (δ at 200 μM, and γ at 50 μM) in to the wells containing reaction mixture, followed by re-incubation for 30 minutes at room temperature. Reaction was terminated by addition of a stopping solution and was further incubated for 4 hours at room temperature before reading using Envision multimode reader (Perkin Elmer). Percentage inhibition of PI3K activity was calculated by determining ratio of specific europium 665 nm energy transfer signal to reference 615 nm signals.

[2] = target: T2, purified recombinant human PI3K enzyme γ (Homo sapiens, UniProt P48736); assay: Inhibition of PI3-Kinase enzymatic activity (HTRF enzyme assay), γ; assay type: biochemical; conditions: 1 μM compound; PI3K γ 100 ng/well; PIP2 10 μM; ATP 50 μM; read-out: Percentage inhibition of PI3K activity, γ
T2 construct: purchased Invitrogen, USA
Procedure: as §1

T1 sequence (O00329 whole entry): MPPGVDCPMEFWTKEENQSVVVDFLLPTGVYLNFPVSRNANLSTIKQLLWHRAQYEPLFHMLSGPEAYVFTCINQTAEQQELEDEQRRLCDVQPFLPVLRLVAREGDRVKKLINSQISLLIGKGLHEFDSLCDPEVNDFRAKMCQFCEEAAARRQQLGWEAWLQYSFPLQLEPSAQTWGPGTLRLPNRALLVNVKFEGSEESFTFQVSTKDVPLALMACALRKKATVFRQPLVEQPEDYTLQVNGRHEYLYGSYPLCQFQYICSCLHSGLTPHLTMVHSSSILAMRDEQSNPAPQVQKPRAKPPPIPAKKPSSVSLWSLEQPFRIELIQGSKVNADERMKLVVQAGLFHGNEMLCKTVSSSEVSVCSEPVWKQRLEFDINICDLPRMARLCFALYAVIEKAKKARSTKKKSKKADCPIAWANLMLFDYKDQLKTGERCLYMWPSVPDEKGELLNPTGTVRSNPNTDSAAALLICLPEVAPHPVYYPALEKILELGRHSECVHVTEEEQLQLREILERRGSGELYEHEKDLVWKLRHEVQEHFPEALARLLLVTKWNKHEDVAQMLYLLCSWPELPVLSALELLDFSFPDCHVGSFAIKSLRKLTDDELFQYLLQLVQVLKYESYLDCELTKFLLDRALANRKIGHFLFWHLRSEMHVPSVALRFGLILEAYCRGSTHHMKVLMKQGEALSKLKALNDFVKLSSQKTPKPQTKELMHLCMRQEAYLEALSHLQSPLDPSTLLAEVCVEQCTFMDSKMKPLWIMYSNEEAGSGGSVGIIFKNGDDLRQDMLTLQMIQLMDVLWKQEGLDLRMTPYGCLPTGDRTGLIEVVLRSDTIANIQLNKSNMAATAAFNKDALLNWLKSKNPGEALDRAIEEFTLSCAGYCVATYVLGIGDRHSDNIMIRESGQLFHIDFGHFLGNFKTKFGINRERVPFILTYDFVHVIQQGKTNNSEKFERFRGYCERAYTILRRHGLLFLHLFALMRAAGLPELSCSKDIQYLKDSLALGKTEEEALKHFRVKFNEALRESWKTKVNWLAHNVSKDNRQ
T1 sequence (P27986 whole entry partner): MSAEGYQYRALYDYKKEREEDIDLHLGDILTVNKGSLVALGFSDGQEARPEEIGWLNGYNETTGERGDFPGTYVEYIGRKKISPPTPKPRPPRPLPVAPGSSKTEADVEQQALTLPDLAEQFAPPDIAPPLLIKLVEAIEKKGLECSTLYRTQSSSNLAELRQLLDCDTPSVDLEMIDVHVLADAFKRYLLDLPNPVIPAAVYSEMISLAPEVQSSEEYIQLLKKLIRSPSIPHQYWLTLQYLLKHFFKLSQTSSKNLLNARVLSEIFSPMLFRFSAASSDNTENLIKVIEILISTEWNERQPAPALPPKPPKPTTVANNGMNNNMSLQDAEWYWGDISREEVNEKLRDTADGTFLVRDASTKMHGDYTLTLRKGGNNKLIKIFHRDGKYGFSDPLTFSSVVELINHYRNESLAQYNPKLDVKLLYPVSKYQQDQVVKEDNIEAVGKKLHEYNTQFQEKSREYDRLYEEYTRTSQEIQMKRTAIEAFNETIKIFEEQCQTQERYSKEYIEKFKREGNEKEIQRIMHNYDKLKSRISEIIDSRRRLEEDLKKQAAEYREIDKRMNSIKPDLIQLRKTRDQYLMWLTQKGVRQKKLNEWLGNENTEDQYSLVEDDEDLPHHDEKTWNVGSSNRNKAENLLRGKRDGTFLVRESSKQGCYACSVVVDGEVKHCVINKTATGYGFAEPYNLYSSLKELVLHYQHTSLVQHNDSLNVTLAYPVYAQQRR
T2 sequence (P48736 whole entry): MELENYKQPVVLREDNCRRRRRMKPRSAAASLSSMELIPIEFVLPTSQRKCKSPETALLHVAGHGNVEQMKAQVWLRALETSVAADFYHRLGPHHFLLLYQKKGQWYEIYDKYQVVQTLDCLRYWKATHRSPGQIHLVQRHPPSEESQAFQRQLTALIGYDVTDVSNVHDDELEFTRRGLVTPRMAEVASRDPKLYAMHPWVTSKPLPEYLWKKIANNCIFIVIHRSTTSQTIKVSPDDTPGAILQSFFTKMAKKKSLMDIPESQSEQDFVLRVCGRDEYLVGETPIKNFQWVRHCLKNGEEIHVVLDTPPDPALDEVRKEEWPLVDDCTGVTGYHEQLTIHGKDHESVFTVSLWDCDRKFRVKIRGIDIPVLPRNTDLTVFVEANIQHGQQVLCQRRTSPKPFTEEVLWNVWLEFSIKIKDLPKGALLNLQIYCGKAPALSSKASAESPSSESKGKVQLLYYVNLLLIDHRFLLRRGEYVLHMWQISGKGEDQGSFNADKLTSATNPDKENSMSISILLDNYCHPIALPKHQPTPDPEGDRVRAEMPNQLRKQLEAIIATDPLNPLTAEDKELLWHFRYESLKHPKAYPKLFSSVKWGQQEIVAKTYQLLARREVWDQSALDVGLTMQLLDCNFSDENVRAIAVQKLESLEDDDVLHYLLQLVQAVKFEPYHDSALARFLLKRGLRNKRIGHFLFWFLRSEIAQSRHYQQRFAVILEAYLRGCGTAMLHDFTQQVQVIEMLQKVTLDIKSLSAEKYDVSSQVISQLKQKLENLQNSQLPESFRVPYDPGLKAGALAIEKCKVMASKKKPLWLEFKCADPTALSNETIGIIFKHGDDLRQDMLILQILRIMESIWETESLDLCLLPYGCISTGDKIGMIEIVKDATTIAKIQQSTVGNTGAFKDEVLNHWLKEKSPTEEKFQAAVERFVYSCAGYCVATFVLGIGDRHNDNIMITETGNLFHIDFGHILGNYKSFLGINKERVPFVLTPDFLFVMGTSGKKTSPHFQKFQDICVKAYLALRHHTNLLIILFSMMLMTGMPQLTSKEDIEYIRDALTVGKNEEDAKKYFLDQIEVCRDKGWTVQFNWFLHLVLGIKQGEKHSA

inhibition at 1 µM [1]: 80 to 100%
inhibition at 1 µM [2]: 80 to 100%
SMILES: CC1(C)Cc2c(-c3nn(Cc4nc5cccc(C#CCO)c5c(=O)n4-n4cccc4)c4ncnc(N)c34)ccc(O)c2O1 [compound 19, 2-{[4-amino-3-(7-hydroxy-2,2-dimethyl-2,3-dihydro-1-benzofuran-4-yl)-1H-pyrazolo[3,4-d]pyrimidin-1-yl]methyl}-5-(3-hydroxyprop-1-yn-1-yl)-3-(1H-pyrrol-1-yl)quinazolin-4(3H)-one]

inhibition at 1 µM [1]: 80 to 100%
inhibition at 1 µM [2]: 80 to 100%
SMILES: CC1(C)Cc2c(-c3nn(Cc4nc5cccc(Br)c5c(=O)n4C4(c5ccccc5)CC4)c4ncnc(N)c34)ccc(O)c2O1 [compound 13, 2-{[4-amino-3-(7-hydroxy-2,2-dimethyl-2,3-dihydro-1-benzofuran-4-yl)-1H-pyrazolo[3,4-d]pyrimidin-1-yl]methyl}-5-bromo-3-(1-phenylcyclopropyl)quinazolin-4(3H)-one]

inhibition at 1 µM [1]: 80 to 100%
inhibition at 1 µM [2]: 60 to 80%
SMILES: Cc1ccccc1C1(n2c(Cn3nc(-c4ccc(O)c5c4CC(C)(C)O5)c4c(N)ncnc43)nc3cccc(C)c3c2=O)CC1 [compound 56, 2-{[4-amino-3-(7-hydroxy-2,2-dimethyl-2,3-dihydro-1-benzofuran-4-yl)-1H-pyrazolo[3,4-d]pyrimidin-1-yl]methyl}-5-methyl-3-[1-(2-methylphenyl)cyclopropyl]quinazolin-4(3H)-one]

inhibition at 1 µM [1]: 80 to 100%
inhibition at 1 µM [2]: 60 to 80%
SMILES: Cc1cccc(C2(n3c(Cn4nc(-c5ccc(O)c6c5CC(C)(C)O6)c5c(N)ncnc54)nc4cccc(-c5ccnn5C)c4c3=O)CC2)c1 [compound 33, 2-{[4-amino-3-(7-hydroxy-2,2-dimethyl-2,3-dihydro-1-benzofuran-4-yl)-1H-pyrazolo[3,4-d]pyrimidin-1-yl]methyl}-3-[1-(3-methylphenyl)cyclopropyl]-5-(1-methyl-1H-pyrazol-5-yl)quinazolin-4(3H)-one]

inhibition at 1 µM [1]: 80 to 100%
inhibition at 1 µM [2]: 60 to 80%
SMILES: Cc1ccccc1C1(n2c(Cn3nc(-c4ccc(O)c5c4CC(C)(C)O5)c4c(N)ncnc43)nc3cccc(Cl)c3c2=O)CC1 [compound 55, 2-{[4-amino-3-(7-hydroxy-2,2-dimethyl-2,3-dihydro-1-benzofuran-4-yl)-1H-pyrazolo[3,4-d]pyrimidin-1-yl]methyl}-5-chloro-3-[1-(2-methylphenyl)cyclopropyl]quinazolin-4(3H)-one]

inhibition at 1 µM [1]: 80 to 100%
inhibition at 1 µM [2]: 40 to 60%
SMILES: CC1(C)Cc2c(-c3nn(Cc4nc5cccc(Cl)c5c(=O)n4-n4cc5ccccc5n4)c4ncnc(N)c34)ccc(O)c2O1 [Compound No. 4, 2-{[4-amino-3-(7-hydroxy-2,2-dimethyl-2,3-dihydro-1-benzofuran-4-yl)-1H-pyrazolo[3,4-d]pyrimidin-1-yl]methyl}-5-chloro-3-(2H-indazol-2-yl)quinazolin-4(3H)-one]

inhibition at 1 µM [1]: 80 to 100%
inhibition at 1 µM [2]: 80 to 100%
SMILES: CC1(C)Cc2c(-c3nn(Cc4nc5cccc(C#CCNC(=O)C6CC6)c5c(=O)n4-n4cccc4)c4ncnc(N)c34)ccc(O)c2O1 [compound 29, N-{3-[2-{[4-amino-3-(7-hydroxy-2,2-dimethyl-2,3-dihydro-1-benzofuran-4-yl)-1H-pyrazolo[3,4-d]pyrimidin-1-yl]methyl}-4-oxo-3-(1H-pyrrol-1-yl)-3,4-dihydroquinazolin-5-yl]prop-2-yn-1-yl}cyclopropanecarboxamide]

inhibition at 1 µM [1]: 80 to 100%
inhibition at 1 µM [2]: 80 to 100%
SMILES: Cn1cccc1-c1cccc2nc(Cn3nc(-c4ccc(O)c5c4CC(C)(C)O5)c4c(N)ncnc43)n(C3(c4ccsc4)CC3)c(=O)c12 [compound 75, 2-{[4-amino-3-(7-hydroxy-2,2-dimethyl-2,3-dihydro-1-benzofuran-4-yl)-1H-pyrazolo[3,4-d]pyrimidin-1-yl]methyl}-5-(1-methyl-1H-pyrrol-2-yl)-3-[1-(thiophen-3-yl)cyclopropyl]quinazolin-4(3H)-one]

inhibition at 1 µM [1]: 80 to 100%
inhibition at 1 µM [2]: 80 to 100%
SMILES: CC1(C)Cc2c(-c3nn(Cc4nc5cccc(C#CCO)c5c(=O)n4C4(c5ccccc5)CC4)c4ncnc(N)c34)ccc(O)c2O1 [compound 24, 2-{[4-amino-3-(7-hydroxy-2,2-dimethyl-2,3-dihydro-1-benzofuran-4-yl)-1H-pyrazolo[3,4-d]pyrimidin-1-yl]methyl}-5-(3-hydroxyprop-1-yn-1-yl)-3-(1-phenylcyclopropyl)quinazolin-4(3H)-one]

inhibition at 1 µM [1]: 80 to 100%
inhibition at 1 µM [2]: 40 to 60%
SMILES: CC1(C)Cc2c(-c3nn(Cc4nc5cccc(F)c5c(=O)n4C4(c5ccccc5)CC4)c4ncnc(N)c34)ccc(O)c2O1 [compound 26, 2-{[4-amino-3-(7-hydroxy-2,2-dimethyl-2,3-dihydro-1-benzofuran-4-yl)-1H-pyrazolo[3,4-d]pyrimidin-1-yl]methyl}-5-fluoro-3-(1-phenylcyclopropyl)quinazolin-4(3H)-one]

The next lines start with the molecule.

SMILES: Cc1ccc(C)n1-n1c(Cn2nc(-c3ccc(O)c4c3CC(C)(C)O4)c3c(N)ncnc32)nc2cccc(C#Cc3cncn3C)c2c1=O [compound 67, 2-{[4-amino-3-(7-hydroxy-2,2-dimethyl-2,3-dihydro-1-benzofuran-4-yl)-1H-pyrazolo[3,4-d]pyrimidin-1-yl]methyl}-3-(2,5-dimethyl-1H-pyrrol-1-yl)-5-[(1-methyl-1H-imidazol-5-yl)ethynyl]quinazolin-4(3H)-one]
inhibition at 1 µM [1]: 80 to 100%
inhibition at 1 µM [2]: < 20%

SMILES: Cc1cccc2nc(Cn3nc(-c4ccc(O)c5c4CC(C)(C)O5)c4c(N)ncnc43)n(-n3cccn3)c(=O)c12 [compound 7, 2-{[4-amino-3-(7-hydroxy-2,2-dimethyl-2,3-dihydro-1-benzofuran-4-yl)-1H-pyrazolo[3,4-d]pyrimidin-1-yl]methyl}-5-methyl-3-(1H-pyrazol-1-yl)quinazolin-4(3H)-one]
inhibition at 1 µM [1]: 80 to 100%
inhibition at 1 µM [2]: 60 to 80%

SMILES: Cc1cccc2nc(Cn3nc(-c4ccc(O)c5c4CC(C)(C)O5)c4c(N)ncnc43)n(-n3cccc3)c(=O)c12 [Compound No. 2, 2-{[4-amino-3-(7-hydroxy-2,2-dimethyl-2,3-dihydro-1-benzofuran-4-yl)-1H-pyrazolo[3,4-d]pyrimidin-1-yl]methyl}-5-methyl-3-(1H-pyrrol-1-yl)quinazolin-4(3H)-one]
inhibition at 1 µM [1]: 80 to 100%
inhibition at 1 µM [2]: 80 to 100%

SMILES: CC1(C)Cc2c(-c3nn(Cc4nc5cccc(Cl)c5c(=O)n4-n4cccn4)c4ncnc(N)c34)ccc(O)c2O1 [compound 6, 2-{[4-amino-3-(7-hydroxy-2,2-dimethyl-2,3-dihydro-1-benzofuran-4-yl)-1H-pyrazolo[3,4-d]pyrimidin-1-yl]methyl}-5-chloro-3-(1H-pyrazol-1-yl)quinazolin-4(3H)-one]
inhibition at 1 µM [1]: 80 to 100%
inhibition at 1 µM [2]: 60 to 80%

SMILES: Cc1cccc2nc([C@H](C)n3nc(-c4ccc(O)c5c4CC(C)(C)O5)c4c(N)ncnc43)n(-n3c(C)ccc3C)c(=O)c12 [compound 95, 2-{(1S)-1-[4-amino-3-(7-hydroxy-2,2-dimethyl-2,3-dihydro-1-benzofuran-4-yl)-1H-pyrazolo[3,4-d]pyrimidin-1-yl]ethyl}-3-(2,5-dimethyl-1H-pyrrol-1-yl)-5-methylquinazolin-4(3H)-one]
inhibition at 1 µM [1]: 80 to 100%
inhibition at 1 µM [2]: 80 to 100%

SMILES: CCn1cc(-c2cccc3nc([C@H](C)n4nc(-c5ccc(O)c6c5CC(C)(C)O6)c5c(N)ncnc54)n(-n4cccc4)c(=O)c23)cn1 [compound 99, 2-{(1S)-1-[4-amino-3-(7-hydroxy-2,2-dimethyl-2,3-dihydro-1-benzofuran-4-yl)-1H-pyrazolo[3,4-d]pyrimidin-1-yl]ethyl}-5-(1-ethyl-1H-pyrazol-4-yl)-3-(1H-pyrrol-1-yl)quinazolin-4(3H)-one]
inhibition at 1 µM [1]: 80 to 100%
inhibition at 1 µM [2]: 40 to 60%

SMILES: Cc1cc(C)n(-n2c(Cn3nc(-c4ccc(O)c5c4CC(C)(C)O5)c4c(N)ncnc43)nc3cccc(Cl)c3c2=O)n1 [compound 12, 2-{[4-amino-3-(7-hydroxy-2,2-dimethyl-2,3-dihydro-1-benzofuran-4-yl)-1H-pyrazolo[3,4-d]pyrimidin-1-yl]methyl}-5-chloro-3-(3,5-dimethyl-1H-pyrazol-1-yl)quinazolin-4(3H)-one]
inhibition at 1 µM [1]: 80 to 100%
inhibition at 1 µM [2]: 80 to 100%

SMILES: Cc1cc(C)n(-n2c(Cn3nc(-c4ccc(O)c5c4CC(C)(C)O5)c4c(N)ncnc43)nc3cccc(C)c3c2=O)n1 [compound 11, 2-{[4-amino-3-(7-hydroxy-2,2-dimethyl-2,3-dihydro-1-benzofuran-4-yl)-1H-pyrazolo[3,4-d]pyrimidin-1-yl]methyl}-3-(3,5-dimethyl-1H-pyrazol-1-yl)-5-methylquinazolin-4(3H)-one]
inhibition at 1 µM [1]: 80 to 100%
inhibition at 1 µM [2]: 60 to 80%

SMILES: Cc1ccc(C)n1-n1c(Cn2nc(-c3ccc(O)c4c3CC(C)(C)O4)c3c(N)ncnc32)nc2cccc(-c3ccnn3C)c2c1=O [compound 41, 2-{[4-amino-3-(7-hydroxy-2,2-dimethyl-2,3-dihydro-1-benzofuran-4-yl)-1H-pyrazolo[3,4-d]pyrimidin-1-yl]methyl}-3-(2,5-dimethyl-1H-pyrrol-1-yl)-5-(1-methyl-1H-pyrazol-5-yl)quinazolin-4(3H)-one]
inhibition at 1 µM [1]: 80 to 100%
inhibition at 1 µM [2]: 80 to 100%
